Results on five compounds are retold here after patent US8686150B2 (Sanofi, priority 2011, dated 2014).

The target in the test is T1, human full-length recombinant PKC βII (Homo sapiens, UniProt P05771).
T1 construct: Active human full-length recombinant PKC βII; purchased Invitrogen GmbH, Darmstadt, Germany
As to the kind of experiment: Determination of PKC βII inhibition (Caliper mobility-shift kinase assay, Fluorescein-RFARKGSLRQKNV peptide substrate). In kind it is biochemical. The settings on record: example compounds at a final concentration of 1.14 μM (±0.15 μM). In a few lines:
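Full-length PKC βII (30 ng/ml in pre-dilution) with PS/DAG/Ca2+ activators, pH 7.4; fluorescein peptide and ATP at 3 μM and 120 μM before mixing. Reaction ran 60 min at 32 °C, was EDTA-stopped, and was read by mobility shift. % inhibition came from product/(substrate+product) peak heights, tested at 1.14 μM final.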

By inhibition is commonly meant the share of the control response that was lost under treatment.

T1 sequence (P05771 1-673 isoform P05771-2): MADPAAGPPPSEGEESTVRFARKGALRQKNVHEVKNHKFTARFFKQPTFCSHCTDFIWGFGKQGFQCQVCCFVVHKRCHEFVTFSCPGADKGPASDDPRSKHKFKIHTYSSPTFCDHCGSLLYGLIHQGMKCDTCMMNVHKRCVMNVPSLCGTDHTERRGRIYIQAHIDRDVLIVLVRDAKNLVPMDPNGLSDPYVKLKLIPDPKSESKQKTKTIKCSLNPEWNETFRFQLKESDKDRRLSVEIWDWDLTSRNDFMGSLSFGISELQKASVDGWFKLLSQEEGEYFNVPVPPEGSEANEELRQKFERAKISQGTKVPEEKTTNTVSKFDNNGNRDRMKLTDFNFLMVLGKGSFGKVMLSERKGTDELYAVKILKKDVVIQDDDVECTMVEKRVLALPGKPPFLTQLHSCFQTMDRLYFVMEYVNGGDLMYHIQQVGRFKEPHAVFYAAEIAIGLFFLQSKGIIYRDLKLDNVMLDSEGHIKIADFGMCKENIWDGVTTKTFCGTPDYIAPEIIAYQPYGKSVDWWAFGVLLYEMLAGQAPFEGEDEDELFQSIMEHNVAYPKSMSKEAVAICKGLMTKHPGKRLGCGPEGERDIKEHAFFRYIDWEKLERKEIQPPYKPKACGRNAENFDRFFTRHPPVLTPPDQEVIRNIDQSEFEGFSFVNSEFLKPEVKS

As to `Cc1n[nH]c2nc(-c3ccc(O)cc3F)cc(C(=O)N3C[C@@H](C)N(CC4CCNCC4)C[C@@H]3C)c12` [Example 453, ((2S,5R)-2,5-Dimethyl-4-piperidin-4-ylmethyl-piperazin-1-yl)-[6-(2-fluoro-4-hydroxy-phenyl)-3-methyl-1H-pyrazolo[3,4-b]pyridin-4-yl]-methanone], the inhibition at 1.14 µM was found to be 90%.

Turning to `Cc1n[nH]c2nc(-c3ccc(O)cc3F)cc(C(=O)N3C[C@@H](C)N(CC4CCOCC4)C[C@@H]3C)c12` [Example 454, [(2S,5R)-2,5-Dimethyl-4-(tetra-hydro-pyran-4-yl-methyl)-piperazin-1-yl]-[6-(2-fluoro-4-hydroxy-phenyl)-3-methyl-1H-pyrazolo[3,4-b]pyridin-4-yl]-methanone], the inhibition at 1.14 µM is 81%.

As to `Cc1n[nH]c2nc(-c3ccc(O)cc3F)cc(C(=O)N3C[C@@H](C)N(CC4CCOC4)C[C@@H]3C)c12` (stereo partly drawn) [Example 455, [(2S,5R)-2,5-Dimethyl-4-(tetra-hydro-furan-3-ylmethyl)-piperazin-1-yl]-[6-(2-fluoro-4-hydroxy-phenyl)-3-methyl-1H-pyrazolo[3,4-b]pyridin-4-yl]-methanone], the inhibition at 1.14 µM was 92%.

For `Cc1n[nH]c2nc(-c3ccc(O)cc3)cc(C(=O)N3C[C@@H](C)NC[C@@H]3c3ccccc3)c12` [Example 458, [6-(4-Hydroxy-phenyl)-3-methyl-1H-pyrazolo[3,4-b]pyridin-4-yl]-((2S,5R)-5-methyl-2-phenyl-piperazin-1-yl)-methanone], the inhibition at 1.14 µM came out at 44%.

As to `Cc1n[nH]c2nc(-c3ccc(O)cc3)cc(C(=O)N3C[C@H](C)NC[C@H]3c3ccccc3)c12` [Example 459, [6-(4-Hydroxy-phenyl)-3-methyl-1H-pyrazolo[3,4-b]pyridin-4-yl]-((2R,5S)-5-methyl-2-phenyl-piperazin-1-yl)-methanone], the inhibition at 1.14 µM turned out to be 95%.
